In publication PMC9724289 (The European Respiratory Journal, 2022):

Assays:
[1] = tested on: rat monocrotaline (MCT) model; conditions: cited from earlier work
PDGFRβ = PDGFRβ (Rattus norvegicus, UniProt Q05030); experiment: Imatinib in vivo pharmacodynamic profile; conditions: imatinib dose selected for the in vivo study, oral gavage
[2] = tested on: rat SU5416/Hypoxia (SU5416/H) model of PAH; experiment: SU5416/H model; assay type: in vivo; conditions: for circulating IL-10 / circulating plasma TNF-α / lung mRNA and protein levels of MCP-1: day 49, vs vehicle; for lung BMPR2: end of treatment, vs vehicle
[3] = tested on: human pulmonary arterial smooth muscle cells (HPASMCs); experiment: PDGF-BB-induced HPASMC proliferation assay; assay type: cell-based
CSF1R = CSF1R (Homo sapiens, UniProt P07333); experiment: M-CSF-induced pCSF1R in primary human macrophages
[4] = Inhaled seralutinib pharmacokinetics in healthy rats; conditions: male, Sprague Dawley, rat, lung homogenate and plasma
c-KIT [5] = biological target: c-KIT (Rattus norvegicus, UniProt F7EWK5); experiment: Lung c-KIT phosphorylation after PDGF-BB and SCF challenge in healthy rats; assay type: in vivo; conditions: inhaled; co-administered intratracheal PDGF-BB and SCF
BMPR2 = experiment: Lung BMPR2 protein expression in healthy rats; assay type: in vivo, rat; conditions: inhaled, dose-dependent, over time (8, 16, 24 h post-dosing)
[6] = tested on: rat monocrotaline pneumonectomy (MCTPN) model of PAH; experiment: MCTPN model; assay type: in vivo
[7] = tested on: rat SU5416/Hypoxia (SU5416/H) model of PAH; experiment: SU5416/H model; assay type: in vivo; conditions: for RVSP end of study: 2 weeks
[8] = tested on: MCP-1 secretion in CSF1R+ human macrophages; experiment: MCP-1/CCL2 secretion in primary human macrophages; assay type: cell-based; conditions: 24-hour incubation
c-KIT [9] = biological target: c-KIT (Homo sapiens, UniProt P10721); experiment: cell-based
[10] = 2.5 mg·kg−1 twice daily inhaled, 11 days
[11] = 2.5 mg·kg−1 twice daily, vs vehicle
[12] = 4.6 mg·kg−1 twice daily, vs vehicle

Sequence of CSF1R (P07333 20-972): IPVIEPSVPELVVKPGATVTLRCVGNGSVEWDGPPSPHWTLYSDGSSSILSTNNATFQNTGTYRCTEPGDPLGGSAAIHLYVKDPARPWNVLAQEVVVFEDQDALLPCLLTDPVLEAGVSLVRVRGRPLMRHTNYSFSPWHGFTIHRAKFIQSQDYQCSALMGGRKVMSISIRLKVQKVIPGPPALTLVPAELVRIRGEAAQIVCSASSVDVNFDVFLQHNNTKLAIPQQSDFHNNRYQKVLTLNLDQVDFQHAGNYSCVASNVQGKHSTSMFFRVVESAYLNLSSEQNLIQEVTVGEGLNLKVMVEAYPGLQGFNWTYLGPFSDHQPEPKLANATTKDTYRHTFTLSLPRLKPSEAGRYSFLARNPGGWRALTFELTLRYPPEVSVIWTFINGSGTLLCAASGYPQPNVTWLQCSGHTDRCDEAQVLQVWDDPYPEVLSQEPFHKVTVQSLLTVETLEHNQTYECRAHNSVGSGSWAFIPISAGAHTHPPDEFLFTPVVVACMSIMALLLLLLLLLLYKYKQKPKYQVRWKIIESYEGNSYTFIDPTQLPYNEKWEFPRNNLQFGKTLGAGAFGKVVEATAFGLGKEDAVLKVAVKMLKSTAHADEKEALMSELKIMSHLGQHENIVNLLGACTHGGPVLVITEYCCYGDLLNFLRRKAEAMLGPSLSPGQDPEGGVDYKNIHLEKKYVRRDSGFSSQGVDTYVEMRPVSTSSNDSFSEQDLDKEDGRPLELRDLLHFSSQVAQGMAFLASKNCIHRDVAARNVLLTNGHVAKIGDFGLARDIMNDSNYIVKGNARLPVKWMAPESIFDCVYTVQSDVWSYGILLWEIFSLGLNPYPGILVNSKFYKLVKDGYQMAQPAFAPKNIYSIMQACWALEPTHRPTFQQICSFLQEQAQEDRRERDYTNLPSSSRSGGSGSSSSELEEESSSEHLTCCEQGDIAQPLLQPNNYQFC
Sequence of c-KIT (Rattus norvegicus, UniProt F7EWK5) (F7EWK5 26-978): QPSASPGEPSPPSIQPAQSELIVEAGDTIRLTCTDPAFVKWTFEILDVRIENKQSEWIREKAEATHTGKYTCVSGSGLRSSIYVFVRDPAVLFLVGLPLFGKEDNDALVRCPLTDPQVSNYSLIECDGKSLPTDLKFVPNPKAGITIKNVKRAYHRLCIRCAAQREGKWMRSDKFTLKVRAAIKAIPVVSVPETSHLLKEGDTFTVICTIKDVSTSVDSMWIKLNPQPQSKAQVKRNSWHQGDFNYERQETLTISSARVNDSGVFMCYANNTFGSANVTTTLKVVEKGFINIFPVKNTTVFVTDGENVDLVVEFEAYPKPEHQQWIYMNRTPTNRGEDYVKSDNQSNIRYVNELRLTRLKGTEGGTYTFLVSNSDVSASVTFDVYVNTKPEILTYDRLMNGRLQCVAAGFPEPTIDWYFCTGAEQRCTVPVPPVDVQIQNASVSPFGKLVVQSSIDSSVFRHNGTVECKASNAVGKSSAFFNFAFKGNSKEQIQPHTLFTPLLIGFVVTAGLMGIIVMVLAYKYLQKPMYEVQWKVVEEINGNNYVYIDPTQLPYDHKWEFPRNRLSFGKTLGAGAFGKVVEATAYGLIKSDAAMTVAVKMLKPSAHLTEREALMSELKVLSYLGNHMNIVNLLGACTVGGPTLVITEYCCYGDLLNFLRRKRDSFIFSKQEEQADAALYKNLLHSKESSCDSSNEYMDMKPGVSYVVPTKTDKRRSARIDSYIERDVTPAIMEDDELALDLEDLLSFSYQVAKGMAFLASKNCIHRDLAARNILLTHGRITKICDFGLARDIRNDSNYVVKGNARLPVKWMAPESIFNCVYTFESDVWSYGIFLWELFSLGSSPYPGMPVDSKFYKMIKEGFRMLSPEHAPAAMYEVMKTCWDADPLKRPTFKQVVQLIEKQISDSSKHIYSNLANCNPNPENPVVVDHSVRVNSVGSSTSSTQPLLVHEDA
Sequence of PDGFRβ (Q05030 32-1097): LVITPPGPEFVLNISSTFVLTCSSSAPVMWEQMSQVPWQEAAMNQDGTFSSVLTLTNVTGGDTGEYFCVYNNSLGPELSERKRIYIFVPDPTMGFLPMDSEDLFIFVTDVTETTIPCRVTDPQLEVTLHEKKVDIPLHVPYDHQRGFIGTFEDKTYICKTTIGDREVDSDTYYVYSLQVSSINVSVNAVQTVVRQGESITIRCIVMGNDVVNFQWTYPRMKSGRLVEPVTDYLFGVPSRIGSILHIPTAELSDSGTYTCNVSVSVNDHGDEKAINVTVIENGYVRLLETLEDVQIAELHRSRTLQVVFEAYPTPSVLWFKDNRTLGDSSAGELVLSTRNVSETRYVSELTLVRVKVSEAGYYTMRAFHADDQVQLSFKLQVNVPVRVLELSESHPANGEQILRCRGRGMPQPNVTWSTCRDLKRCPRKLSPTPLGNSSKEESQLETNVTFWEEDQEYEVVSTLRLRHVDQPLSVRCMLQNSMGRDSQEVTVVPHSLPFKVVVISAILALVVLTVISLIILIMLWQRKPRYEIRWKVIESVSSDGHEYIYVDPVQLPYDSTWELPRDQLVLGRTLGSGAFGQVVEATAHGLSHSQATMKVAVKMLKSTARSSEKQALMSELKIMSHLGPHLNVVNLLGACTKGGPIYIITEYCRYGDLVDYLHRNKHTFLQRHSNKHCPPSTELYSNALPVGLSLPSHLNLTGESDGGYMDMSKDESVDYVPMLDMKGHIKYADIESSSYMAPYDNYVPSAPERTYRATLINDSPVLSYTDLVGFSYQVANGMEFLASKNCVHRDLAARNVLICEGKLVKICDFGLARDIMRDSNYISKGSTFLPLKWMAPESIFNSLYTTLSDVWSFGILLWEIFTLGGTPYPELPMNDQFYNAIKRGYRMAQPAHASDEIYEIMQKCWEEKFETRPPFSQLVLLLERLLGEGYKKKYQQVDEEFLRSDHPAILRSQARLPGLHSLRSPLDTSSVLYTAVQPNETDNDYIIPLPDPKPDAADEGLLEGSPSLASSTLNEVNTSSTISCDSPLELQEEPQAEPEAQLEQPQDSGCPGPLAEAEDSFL
Sequence of c-KIT (Homo sapiens, UniProt P10721) (P10721 26-976): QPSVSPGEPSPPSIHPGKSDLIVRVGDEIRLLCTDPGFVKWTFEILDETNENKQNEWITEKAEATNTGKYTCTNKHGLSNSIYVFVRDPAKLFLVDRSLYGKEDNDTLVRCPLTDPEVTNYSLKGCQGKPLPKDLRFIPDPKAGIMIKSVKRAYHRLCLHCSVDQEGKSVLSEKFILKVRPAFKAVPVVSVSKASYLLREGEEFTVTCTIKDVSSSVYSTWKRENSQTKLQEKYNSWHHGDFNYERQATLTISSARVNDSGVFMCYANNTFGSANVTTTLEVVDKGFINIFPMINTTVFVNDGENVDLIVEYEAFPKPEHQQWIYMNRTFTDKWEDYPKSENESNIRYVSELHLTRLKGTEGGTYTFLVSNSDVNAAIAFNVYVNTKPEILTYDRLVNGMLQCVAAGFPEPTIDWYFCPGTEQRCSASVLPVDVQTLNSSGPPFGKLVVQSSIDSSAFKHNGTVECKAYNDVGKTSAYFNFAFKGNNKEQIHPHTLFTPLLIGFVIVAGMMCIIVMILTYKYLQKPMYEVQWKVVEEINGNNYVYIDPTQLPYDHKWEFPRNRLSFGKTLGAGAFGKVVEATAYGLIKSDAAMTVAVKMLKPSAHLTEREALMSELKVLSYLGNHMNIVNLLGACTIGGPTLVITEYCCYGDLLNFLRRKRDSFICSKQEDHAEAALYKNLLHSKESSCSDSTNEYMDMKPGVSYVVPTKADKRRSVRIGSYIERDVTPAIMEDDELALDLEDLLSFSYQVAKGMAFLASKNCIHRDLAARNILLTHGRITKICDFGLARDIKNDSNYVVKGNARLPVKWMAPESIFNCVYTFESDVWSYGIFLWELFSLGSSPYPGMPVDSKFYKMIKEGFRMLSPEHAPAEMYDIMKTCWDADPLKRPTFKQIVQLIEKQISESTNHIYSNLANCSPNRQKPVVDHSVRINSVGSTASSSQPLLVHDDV

Cc1ccc(NC(=O)c2ccc(CN3CCN(C)CC3)cc2)cc1Nc1nccc(-c2cccnc2)n1 [Imatinib, reference compound]
pulmonary hypertension in rat MCT model [1]: reversed pulmonary hypertension | PDGFRβ phosphorylation in healthy rats (PDGFRβ): potent inhibition | circulating IL-10 [2]: did not significantly alter | circulating plasma TNF-α [2]: did not significantly alter | lung mRNA and protein levels of MCP-1 [2]: did not modulate | lung BMPR2 [2]: no significant effect | effect on NT-proBNP ([2]; imatinib 15.0 mg·kg−1 once daily oral, day 49): no significant effect | potency less than seralutinib ([3]; human PASMC and HLF proliferation assays): 13–20 fold

COc1ccc(-c2cncc(N[C@@H](C)c3cccc(NC(=O)c4cncc(C)c4)c3)n2)cc1OC [Seralutinib, N-[3-[(1S)-1-[[6-(3,4-dimethoxyphenyl)pyrazin-2-yl]amino]ethyl]phenyl]-5-methylpyridine-3-carboxamide]
IC50 (CSF1R): 14.4 nM | more potent than imatinib, pCSF1R (CSF1R; M-CSF-induced phosphorylation of CSF1R in human primary differentiated macrophages): 34 fold | Kp [4]: 30 | inhibition of c-KIT Y719 phosphorylation in lung (c-KIT [5]): 43% | decrease of NT-proBNP versus vehicle control ([2]; 12.8 mg·kg−1 twice daily inhaled, day 49): 55% | small pulmonary artery muscularisation ([2]; compared to both the vehicle and imatinib-treated groups): decrease | SMAD1/5 phosphorylation in lung ([2]; day 49): increase | circulating PDGF-BB ([2]; day 49): trend towards decreased | circulating IL-10 [2]: increased | circulating plasma TNF-α [2]: decreased | lung mRNA and protein levels of MCP-1 [2]: decreased | effect on stroke volume index and cardiac index compared to imatinib ([2]; echocardiography, day 49): significantly greater effect | lung BMPR2 [2]: significantly increased | increase in lung BMPR2 protein expression (BMPR2): 2-to-2.5 fold | greater potency at inhibiting proliferation compared to imatinib ([3]; human PASMCs and HLFs): 13- to 20 fold | reduction in RVSP compared to vehicle [6, 10]: 50% | reduction of right ventricular hypertrophy compared to vehicle [6, 10]: 49% | PASP lower compared to vehicle ([6]; 2.5 mg·kg−1 twice daily inhaled, day 9): 34% | PASP lower compared to vehicle ([6]; 2.5 mg·kg−1 twice daily inhaled, day 10): 37% | PASP lower compared to vehicle ([6]; 2.5 mg·kg−1 twice daily inhaled, day 11): 41% | lumen-to-media area ([6]; 2.5 mg·kg−1 twice daily, vs controls): increased | grade 1 and 2 lesions [6, 11]: fewer | perivascular fibrosis [6, 11]: qualitative decrease | airway resistance ([6]; vs vehicle): similar | minute ventilation ([6]; vs vehicle): similar | respiratory rate ([6]; vs vehicle): decreased | tidal volume ([6]; vs vehicle): significantly improved | RVSP end of study ([7]; 2.5 mg·kg−1 twice daily inhaled): 49.6±3.1 mmHg | reduction of PASP relative to vehicle ([7]; 2.5 mg·kg−1 twice daily inhaled, end of 2-week treatment, telemetry): 43% | RVSP end of study ([7]; 4.6 mg·kg−1 twice daily inhaled): 34.7±2.2 mmHg | lung phospho-PDGFRβ IHC [7, 12]: reduced intensity | number of grade 2 lesions (small pulmonary artery occlusion) [7, 12]: significant decrease | small pulmonary artery lumen-to-media area [7, 12]: increased | MCP-1 secretion [8]: reduced MCP-1 secretion in a dose-dependent manner | IC50 (c-KIT [9]): 7.8 nM
